Source: publication PMC7449161, “Nonstationary Pharmacokinetics of Caspofungin in ICU Patients” (Antimicrobial Agents and Chemotherapy, 2020)
Read-outs that look alike come from different tables or passages of the source.

Assays:
[1] = Population pharmacokinetics of caspofungin in ICU patients (two-compartment nonlinear mixed-effects model); type: in vivo, human; settings: for clearance: human, serum, iv; for typical AUC0–24: maintenance dose of 50 mg
Text: This study was registered at ClinicalTrials.gov under ID NCT03399032. It was a prospective observational study conducted in adult critically ill patients admitted to ICU due to severe sepsis requiring broad-spectrum antibiotics with a high risk of fungal infection. Both medical and surgical patients with any type of infection (pulmonary, abdominal, urinary tract, etc.) were included. Eligible consent was obtained from each patient or his or her attendant. Allergy to caspofungin, lack of consent to participate in the study, and age below 18 or above 80 years were the exclusion criteria. Thirty-three patients were enrolled in the study. Data from three patients were excluded from analysis due to technical issue with handling the samples, which made them unsuitable for analysis and the concentrations could not be determined.
The antibiotic regimen included broad-spectrum antibacterial antibiotics plus caspofungin as empirical antifungal therapy (70 mg i.v. on the first day, and 50 mg i.v. on the consecutive days) once daily. In three patients with liver failure caspofungin doses were reduced (50 mg i.v. initial and 35 mg i.v. maintenance dose). Any site of infection was treated in the manner.
Blood samples (3 ml) were collected 0.5, 2, 4, 8, 12, and 24 h after each dose of caspofungin for three consecutive days from the standard arterial cannula. Thirty minutes after each sample collection, blood was centrifuged for 10 min at 3,000 rpm. Subsequently, the supernatant was collected and frozen. Serum caspofungin concentrations were measured with high-performance liquid chromatography (HPLC).
Plasma samples were prepared for analysis according to a previously described procedure ([3]). A Dionex chromatographic system (Dionex, Sunnyvale, CA), equipped with a P580 LPG LC-6A gradient pump, UVD340S UV-visible detector, and a Rheodyne 7725 loop injector with a sufficient volume of 20 μl was employed in this study. Chromatographic separation was achieved on a Zorbax SB C18 column (150 × 4.6 mm × 5 μm) in isocratic mode. The mobile phase consisted of 20 mM triethylammonium phosphate buffer (pH 3.0): acetonitrile-methanol (50:40:10 [vol/vol/vol]; Fluka, HPLC grade). The mobile phase flow rate was 1.0 ml/min, and caspofungin absorbance was measured at 210 nm. The analytical method was validated in terms of linearity, the limits of detection (LOD) and quantification (LOQ), precision, and accuracy. The standard curves were linear over a concentration range from 0.25 to 10.0 μg/ml with an R^2 of 0.987. The LOD and LOQ values for caspofungin were 0.08 and 0.18 μg/ml, respectively. The intra- and interday accuracies ranged from 98.1 to 102.8%, and the coefficients of variation (CVs) were between 0.8 and 3.4%.
Population nonlinear mixed-effects modeling was conducted using NONMEM software (v7.3; Icon Development Solutions, Ellicott City, MD), GNU Fortran 95 compiler (GCC 4.6.0), and Wings for NONMEM (WFN741, http://wfn.sourceforge.net). The first-order conditional estimation method with η-ε interaction was employed throughout the model-building procedure. R computing environment (R Core Team 2019) was used for data processing and visualization.
The minimum value of the NONMEM objective function (OFV), typical goodness-of-fit diagnostic plots, and the evaluation of the precision of pharmacokinetic parameters and variability estimates were used to discriminate between various models during the model-building process. For hierarchical models, the decrease in OFV of 6.62 units defining an improved fit at a P of <0.01 for one additional parameter was considered to be statistically significant. The uncertainty of final model parameters was determined by nonparametric bootstrap with 1,000 replicates. The 90% confidence intervals (90% CI) for model parameters were constructed based on bootstrap results.
During the structural model-building step, candidate one-, two-, and three-compartment models were tested to describe the pharmacokinetics of caspofungin. […]

[2] = cited from earlier work
Text: There are little data concerning the influence of extracorporeal membrane oxygenation (ECMO) on caspofungin pharmacokinetics ([9], [10]). ECMO is known to alter drug pharmacokinetics due to drug extraction during the procedure and a large volume of exogenous blood needed for ECMO circuit. The changes include increased volume of distribution and decreased clearance ([11]). The interactions between the ECMO circuit and the drug are not always easily predictable, but one of the vital drug characteristics determining circuit drug loss is the lipophilicity and protein binding ([12], [13]). Since ca ... || The changes in parameters with time require further investigation as they might be caused by a process that our study was not able to capture and describe. It could be the result of temporal changes in protein binding as caspofungin is highly protein-bound (97%) ([6]). Another possibility is nonlinearity in metabolic or distribution processes.

[3] = cited from earlier work; for clearance: ICU patients
Text: Although the CL after the first dose (0.563 liters/h, 6.7%RSE) is well within the values reported in literature, the CL after the second dose (0.737 liters/h, 6.1%RSE) is within the highest previously reported values, and the CL after the third dose (1.01 liters/h, 9.1%RSE) almost doubles compared to CL after the first dose and literature CL values.

C. albicans = settings: preclinical pharmacodynamic target; cited from earlier work
Procedure: The simulations of PTA were based on model parameters from bootstrap samples (n = 1,000) in order to include the parameter uncertainty. Predictions of AUC at steady state were performed for the standard 50-mg maintenance dose.

C. glabrata = settings: preclinical pharmacodynamic target; cited from earlier work
C. parapsilosis = settings: preclinical pharmacodynamic target; cited from earlier work
[4] = cited from earlier work; for CL: healthy subjects
[5] = patients with liver failure, maintenance dose of 35 mg, from individual parameters

CC[C@H](C)C[C@H](C)CCCCCCCCC(=O)N[C@H]1C[C@@H](O)[C@@H](NCCN)NC(=O)[C@@H]2[C@@H](O)CCN2C(=O)[C@H]([C@H](O)CCN)NC(=O)[C@H]([C@H](O)[C@@H](O)c2ccc(O)cc2)NC(=O)[C@@H]2C[C@@H](O)CN2C(=O)[C@H]([C@@H](C)O)NC1=O [caspofungin]
decrease in exposure between doses ([1]; CL2 versus CL1): 24%
decrease in exposure between doses ([1]; CL3 versus CL1): 44%
decrease in caspofungin exposure ([1]; associated with increasing clearance with subsequent doses, ICU patients): > 20%
clearance ([1]; estimated during model building process, ICU patients, read-out: mean CL for all three occasions (converted)): 11.8 mL/min
clearance ([1]; typical clearance after first dose, 30 ICU patients, 70 mg i.v. day 1, 50 mg i.v. once daily after, HPLC-UV, final model, read-out: θCL day 1, Estimate (%RSE) (converted)): 9.38 mL/min
clearance ([1]; typical clearance after second dose, 30 ICU patients, i.v., final model, read-out: θCL day 2, Estimate (%RSE) (converted)): 12.3 mL/min
clearance ([1]; typical clearance after third dose, 30 ICU patients, i.v., final model, read-out: θCL day 3, Estimate (%RSE) (converted)): 16.8 mL/min
θQ, Estimate (%RSE) ([1]; intercompartmental clearance, 30 ICU patients, final model): 1.31 (15.7) liter/h
typical AUC0–24 ([1]; typical clearance after first dose (CL1)): 89 mg ⋅ h/liter
typical AUC0–24 ([1]; typical clearance after second dose (CL2)): 68 mg ⋅ h/liter
typical AUC0–24 ([1]; typical clearance after third dose (CL3)): 50 mg ⋅ h/liter
minimal AUC0–24 as % of the 98 mg ⋅ h/liter target ([1]; patients with liver failure, 35 mg maintenance): 23%
maximum AUC0–24 as % of the value required for efficacy ([1]; patients with liver failure, 35 mg maintenance, 98 mg ⋅ h/liter target): 62%
AUC0–24, maximum value [1, 5]: 61 mg ⋅ h/liter
AUC0–24, minimal value [1, 5]: 23 mg ⋅ h/liter
θV1 day 1, Estimate (%RSE) ([1]; volume of distribution of central compartment after first dose, 30 ICU patients, final model): 6.04 (7.0) liter
θV1 day 2, Estimate (%RSE) ([1]; volume of distribution of central compartment after second dose, 30 ICU patients, final model): 7.32 (5.3) liter
θV1 day 3, Estimate (%RSE) ([1]; volume of distribution of central compartment after third dose, 30 ICU patients, final model): 7.70 (5.3) liter
θV2, Estimate (%RSE) ([1]; volume of distribution of peripheral compartment, 30 ICU patients, final model): 5.13 (13.7) liter
protein bound [2]: 97%
mean clearance ([3]; ICU patients (Child-Pugh B score)): 0.55 L/h
clearance ([3]; day 3 of the study): 0.57 L/h
clearance ([3]; day 7 of the study): 0.54 L/h
clearance [3]: 0.66 L/h
CL, value provided in the drug label [3]: 0.72 L/h
mean clearance ([3]; patients undergoing CRRT): 0.62 L/h
mean clearance ([3]; patients with invasive aspergillosis, value for a 76-kg patient): 0.403 L/h
target AUC/MIC (C. albicans): 865
target AUC/MIC (C. glabrata): 450
target AUC/MIC (C. parapsilosis): 1,185
CL ([4]; sampling for 26 weeks): 0.579 L/h
CL ([4]; sampling for 28 days): 0.631 L/h
quantifiable concentrations as long as, after administration ([4]; radioactive labeled caspofungin): 22.3 weeks
